# ± gives the uncertainty stated by the source.
# Experiment: xn = mol fraction of the nth substance listed
smiles,measurement,setting,value
O.O.O.O.O.O=S(=O)([O-])[S-].[Na+].[Na+] + N#C[S-].[K+],viscosity,"294 K, 101.33 kPa, x2 = 0.3",39.21 ± 0.73 mPa·s
same,viscosity,"298 K, 101.33 kPa, x2 = 0.3",31.11 ± 0.58 mPa·s
same,viscosity,"303 K, 101.33 kPa, x2 = 0.3",24.56 ± 0.46 mPa·s
same,viscosity,"308 K, 101.33 kPa, x2 = 0.3",19.44 ± 0.36 mPa·s
same,viscosity,"313 K, 101.33 kPa, x2 = 0.3",15.6 ± 0.29 mPa·s
same,viscosity,"318 K, 101.33 kPa, x2 = 0.3",13.1 ± 0.24 mPa·s
same,viscosity,"323 K, 101.33 kPa, x2 = 0.3",10.89 ± 0.2 mPa·s
CC(C)CCCC(C)CCCC(C)CCCCC(C)CCCC(C)CCCC(C)C (stereo not given) + CCCCCCCC,viscosity,"293.15 K, 100 kPa, x1 = 0.238",2.43 ± 0.15 mPa·s
same,viscosity,"293.15 K, 100 kPa, x1 = 0.492",7.43 ± 0.45 mPa·s
same,viscosity,"293.15 K, 100 kPa, x1 = 0.709",15.6 ± 0.9 mPa·s
same,viscosity,"313.15 K, 100 kPa, x1 = 0.238",1.6 ± 0.1 mPa·s
same,viscosity,"313.15 K, 100 kPa, x1 = 0.492",4.27 ± 0.25 mPa·s
same,viscosity,"313.15 K, 100 kPa, x1 = 0.709",7.68 ± 0.46 mPa·s
C[N+](C)(C)CCO.[Cl-] + CN(CCO)CCO,viscosity,"293.15 K, 101 kPa, x1 = 0.091",54.54 ± 2.2 mPa·s
same,viscosity,"293.15 K, 101 kPa, x1 = 0.111",126.3 ± 5.6 mPa·s
same,viscosity,"293.15 K, 101 kPa, x1 = 0.143",139.8 ± 6.3 mPa·s
same,viscosity,"313.15 K, 101 kPa, x1 = 0.091",20.45 ± 0.86 mPa·s
same,viscosity,"313.15 K, 101 kPa, x1 = 0.111",40.89 ± 1.7 mPa·s
same,viscosity,"313.15 K, 101 kPa, x1 = 0.143",46.55 ± 2 mPa·s
O=Cc1ccccc1 + CCCCCO,viscosity,"293.15 K, 101.33 kPa, x1 = 0.1001",3.688 ± 0.38 mPa·s
same,viscosity,"293.15 K, 101.33 kPa, x1 = 0.2014",3.307 ± 0.34 mPa·s
same,viscosity,"293.15 K, 101.33 kPa, x1 = 0.3028",2.964 ± 0.32 mPa·s
same,viscosity,"293.15 K, 101.33 kPa, x1 = 0.4151",2.626 ± 0.29 mPa·s
same,viscosity,"293.15 K, 101.33 kPa, x1 = 0.5074",2.377 ± 0.27 mPa·s
same,viscosity,"293.15 K, 101.33 kPa, x1 = 0.599",2.153 ± 0.25 mPa·s
same,viscosity,"293.15 K, 101.33 kPa, x1 = 0.7004",1.93 ± 0.23 mPa·s
same,viscosity,"293.15 K, 101.33 kPa, x1 = 0.8063",1.722 ± 0.22 mPa·s
same,viscosity,"293.15 K, 101.33 kPa, x1 = 0.9052",1.547 ± 0.2 mPa·s
same,viscosity,"303.15 K, 101.33 kPa, x1 = 0.1001",2.699 ± 0.3 mPa·s
same,viscosity,"303.15 K, 101.33 kPa, x1 = 0.2014",2.481 ± 0.28 mPa·s
same,viscosity,"303.15 K, 101.33 kPa, x1 = 0.3028",2.281 ± 0.26 mPa·s
same,viscosity,"303.15 K, 101.33 kPa, x1 = 0.4151",2.078 ± 0.25 mPa·s
same,viscosity,"303.15 K, 101.33 kPa, x1 = 0.5074",1.924 ± 0.23 mPa·s
same,viscosity,"303.15 K, 101.33 kPa, x1 = 0.599",1.783 ± 0.22 mPa·s
same,viscosity,"303.15 K, 101.33 kPa, x1 = 0.7004",1.639 ± 0.21 mPa·s
same,viscosity,"303.15 K, 101.33 kPa, x1 = 0.8063",1.501 ± 0.2 mPa·s
same,viscosity,"303.15 K, 101.33 kPa, x1 = 0.9052",1.383 ± 0.19 mPa·s
same,viscosity,"313.15 K, 101.33 kPa, x1 = 0.1001",2.149 ± 0.25 mPa·s
same,viscosity,"313.15 K, 101.33 kPa, x1 = 0.2014",2.007 ± 0.24 mPa·s
same,viscosity,"313.15 K, 101.33 kPa, x1 = 0.3028",1.874 ± 0.23 mPa·s
same,viscosity,"313.15 K, 101.33 kPa, x1 = 0.4151",1.737 ± 0.22 mPa·s
same,viscosity,"313.15 K, 101.33 kPa, x1 = 0.5074",1.632 ± 0.21 mPa·s
same,viscosity,"313.15 K, 101.33 kPa, x1 = 0.599",1.534 ± 0.2 mPa·s
same,viscosity,"313.15 K, 101.33 kPa, x1 = 0.7004",1.432 ± 0.2 mPa·s
same,viscosity,"313.15 K, 101.33 kPa, x1 = 0.8063",1.334 ± 0.19 mPa·s
same,viscosity,"313.15 K, 101.33 kPa, x1 = 0.9052",1.247 ± 0.18 mPa·s
same,viscosity,"323.15 K, 101.33 kPa, x1 = 0.1001",1.279 ± 0.18 mPa·s
same,viscosity,"323.15 K, 101.33 kPa, x1 = 0.2014",1.254 ± 0.18 mPa·s
same,viscosity,"323.15 K, 101.33 kPa, x1 = 0.3028",1.229 ± 0.18 mPa·s
same,viscosity,"323.15 K, 101.33 kPa, x1 = 0.4151",1.202 ± 0.18 mPa·s
same,viscosity,"323.15 K, 101.33 kPa, x1 = 0.5074",1.181 ± 0.17 mPa·s
same,viscosity,"323.15 K, 101.33 kPa, x1 = 0.599",1.16 ± 0.17 mPa·s
same,viscosity,"323.15 K, 101.33 kPa, x1 = 0.7004",1.137 ± 0.17 mPa·s
same,viscosity,"323.15 K, 101.33 kPa, x1 = 0.8063",1.113 ± 0.17 mPa·s
same,viscosity,"323.15 K, 101.33 kPa, x1 = 0.9052",1.092 ± 0.17 mPa·s
CCCCCCCCCCCCO + C1CCCCC1,viscosity,"303.15 K, 101.33 kPa, x1 = 0.0858",1.109 ± 0.014 mPa·s
same,viscosity,"303.15 K, 101.33 kPa, x1 = 0.1621",1.502 ± 0.018 mPa·s
same,viscosity,"303.15 K, 101.33 kPa, x1 = 0.305",2.569 ± 0.029 mPa·s
same,viscosity,"303.15 K, 101.33 kPa, x1 = 0.405",3.522 ± 0.04 mPa·s
same,viscosity,"303.15 K, 101.33 kPa, x1 = 0.506",4.63 ± 0.051 mPa·s
same,viscosity,"303.15 K, 101.33 kPa, x1 = 0.5985",5.781 ± 0.062 mPa·s
same,viscosity,"303.15 K, 101.33 kPa, x1 = 0.6982",7.191 ± 0.074 mPa·s
same,viscosity,"303.15 K, 101.33 kPa, x1 = 0.7746",8.412 ± 0.084 mPa·s
same,viscosity,"303.15 K, 101.33 kPa, x1 = 0.862",9.989 ± 0.098 mPa·s
CCCCCCCCCCCCCCCCCC(=O)OC + ClC(Cl)=C(Cl)Cl,viscosity,"298 K, 101 kPa, x1 = 0.05",1.41 ± 0.17 mPa·s
same,viscosity,"298 K, 101 kPa, x1 = 0.1",1.65 ± 0.2 mPa·s
same,viscosity,"298 K, 101 kPa, x1 = 0.15",1.8 ± 0.22 mPa·s
same,viscosity,"298 K, 101 kPa, x1 = 0.2",2.14 ± 0.26 mPa·s
same,viscosity,"298 K, 101 kPa, x1 = 0.25",2.62 ± 0.32 mPa·s
same,viscosity,"298 K, 101 kPa, x1 = 0.3",2.93 ± 0.35 mPa·s
same,viscosity,"303 K, 101 kPa, x1 = 0.05",1.33 ± 0.16 mPa·s
same,viscosity,"303 K, 101 kPa, x1 = 0.1",1.55 ± 0.19 mPa·s
same,viscosity,"303 K, 101 kPa, x1 = 0.15",1.68 ± 0.2 mPa·s
same,viscosity,"303 K, 101 kPa, x1 = 0.2",2.01 ± 0.24 mPa·s
same,viscosity,"303 K, 101 kPa, x1 = 0.25",2.36 ± 0.28 mPa·s
same,viscosity,"303 K, 101 kPa, x1 = 0.3",2.63 ± 0.32 mPa·s
same,viscosity,"308 K, 101 kPa, x1 = 0.05",1.24 ± 0.15 mPa·s
same,viscosity,"308 K, 101 kPa, x1 = 0.1",1.47 ± 0.18 mPa·s
same,viscosity,"308 K, 101 kPa, x1 = 0.15",1.58 ± 0.19 mPa·s
same,viscosity,"308 K, 101 kPa, x1 = 0.2",1.89 ± 0.23 mPa·s
same,viscosity,"308 K, 101 kPa, x1 = 0.25",2.16 ± 0.26 mPa·s
same,viscosity,"308 K, 101 kPa, x1 = 0.3",2.4 ± 0.29 mPa·s
same,viscosity,"313 K, 101 kPa, x1 = 0.05",1.17 ± 0.14 mPa·s
same,viscosity,"313 K, 101 kPa, x1 = 0.1",1.39 ± 0.17 mPa·s
same,viscosity,"313 K, 101 kPa, x1 = 0.15",1.47 ± 0.18 mPa·s
same,viscosity,"313 K, 101 kPa, x1 = 0.2",1.76 ± 0.21 mPa·s
same,viscosity,"313 K, 101 kPa, x1 = 0.25",1.97 ± 0.24 mPa·s
same,viscosity,"313 K, 101 kPa, x1 = 0.3",2.2 ± 0.27 mPa·s
[Cl-].[Cl-].[Cl-].[Cl-].[Ge+4] + C1COCCO1,viscosity,"298.15 K, 101 kPa, x2 = 0.1519",0.626 ± 0.016 mPa·s
same,viscosity,"298.15 K, 101 kPa, x2 = 0.3148",0.67 ± 0.017 mPa·s
same,viscosity,"298.15 K, 101 kPa, x2 = 0.5071",0.745 ± 0.019 mPa·s
same,viscosity,"298.15 K, 101 kPa, x2 = 0.6631",0.837 ± 0.021 mPa·s
same,viscosity,"298.15 K, 101 kPa, x2 = 0.8814",0.978 ± 0.025 mPa·s
same,viscosity,"298.15 K, 101 kPa, x2 = 0.9218",1.087 ± 0.027 mPa·s
same,viscosity,"313.15 K, 101 kPa, x2 = 0.1519",0.539 ± 0.014 mPa·s
same,viscosity,"313.15 K, 101 kPa, x2 = 0.3148",0.57 ± 0.014 mPa·s
same,viscosity,"313.15 K, 101 kPa, x2 = 0.5071",0.627 ± 0.016 mPa·s
same,viscosity,"313.15 K, 101 kPa, x2 = 0.6631",0.687 ± 0.017 mPa·s
same,viscosity,"313.15 K, 101 kPa, x2 = 0.8814",0.784 ± 0.02 mPa·s
same,viscosity,"313.15 K, 101 kPa, x2 = 0.9218",0.856 ± 0.022 mPa·s

# From the CheMixHub viscosity set
